Measurements as given in a melting point compilation (Tetko et al.; mined from patent text by program, amines drawn as free bases though some values may be those of a salt).

| Structure (SMILES) | melting point |
| --- | --- |
| CN(Cc1ccc2cc(NS(C)(=O)=O)ccc2n1)C1Cc2ccc(NS(C)(=O)=O)cc2C1 (stereo not drawn) | 189 to 191 °C |
| COC(=O)c1ccc(CCCNCC(O)c2cccc(Cl)c2)cc1 (stereo not drawn) | 89 to 92 °C |
| N#CC(C(=O)CBr)c1cccc(Cl)c1 (stereo not drawn) | 124 to 132 °C |
| COc1cc(N)c(Cl)cc1C(=O)OCC12CCCN(CC1)C2 (stereo not drawn) | 131 to 133 °C |
| COC(=O)c1c(N(CC(C)C)CC(C)C)cccc1S(=O)(=O)NC(=O)Nc1nc(OC)cc(OC)n1 | 166 to 167 °C |
| CCCc1nn(C)c2c(=O)[nH]c(-c3ccccc3OC)nc12 | 140 to 141 °C |
| COc1ccc(C(=O)Nc2ccccc2)cc1NCc1ccoc1 | 188 to 190 °C |
| COc1ccc(F)c(F)c1C(=O)c1cnc(NC2CCN(S(N)(=O)=O)CC2)nc1N | 217 to 218 °C |
| Cc1ccc(-c2cc(N3CCCC3)c(C#N)c3c2-c2ccccc2C3)cc1 | 182 to 184 °C |
| CCc1cccc(C(O)c2nc(OC)cc(OC)n2)c1N (stereo not drawn) | 85 to 86 °C |
| CC(C)CCCC(C)NC(=O)Oc1ccc(Oc2ccc(Cl)cc2)cc1 (stereo not drawn) | 46 to 48 °C |
| COc1ccc(C(=O)c2ccc(OCCc3nc(-c4ccccc4)oc3C)nc2)c(O)c1 | 114 to 115 °C |
| COc1ccc(C2=NN(Cn3nnc4ccccc43)C(=O)[C@H]3CCCC[C@@H]23)cc1OC (relative stereo) | 173 to 178 °C |
| C=CCc1c(OCC(O)CSCCO)ccc(C(C)=O)c1O (stereo not drawn) | 54 to 56 °C |
| CCOc1nn(-c2ccc(C(F)(F)F)cn2)cc1CCOc1cccc(CC(=O)O)c1 | 128 to 130 °C |
| CCCn1c2c(c3ccccc3c1=O)C(=O)c1ccccc1-2 | 166 to 167 °C |
| CCC(C)CCOc1c(-c2ccc(S(C)(=O)=O)cc2)cnn(-c2ccc(F)c(F)c2)c1=O (stereo not drawn) | 100 to 102 °C |
| CCc1ccc(CCOc2ccc(NC(=O)N(C)C)cc2)nc1 | 121 to 122 °C |
| CC1Cc2ccc(Br)cc2C(c2ccc(N)cc2)=NN1C1CC1 (stereo not drawn) | 113 to 116 °C |
| O=C(/C=C/c1ccc2ccccc2n1)NO | 160 °C |
| CC(=O)c1cc(-c2ccncc2)sc1N1CCN(C)CC1 | 115 to 117 °C |
| CC(=O)SCC(C(=O)N[C@@H](Cc1c[nH]c2ccccc12)C(=O)O)C(F)(F)F (stereo partly drawn) | 140 to 143 °C |
| CC(=O)Nc1cccc(NC(=O)Cc2ccc(-n3c(-c4cccnc4N)nc4ccc(C)nc43)cc2)c1 | 207 to 209 °C |
| C[C@H]([C@](O)(Cn1cncn1)c1ccc(F)cc1F)S(=O)(=O)N1CCN(c2ccc(C(F)(F)F)cc2)CC1 | 158 to 159 °C |
| Cc1c(Cc2cccc(C(F)(F)F)c2)oc2c(-c3cccc(C(=O)NCCO)c3)cccc12 | 158 to 159 °C |

| Structure (SMILES) | melting point |
| --- | --- |
| CC(C(=O)O)c1cc([N+](=O)[O-])ccc1F (stereo not drawn) | 88 to 90 °C |
| CC(C)(C)c1cc(C(C)(C)C)n(Cc2ccc(COc3ccc(CCC(=O)O)c(F)c3)cc2)n1 | 152 to 153 °C |
| C=Cc1cn(-c2c(Cl)cc(C(F)(F)F)cc2Cl)nc1C(F)(F)F | 95 to 98 °C |
| CCCCCCCCc1cccc(N2CC(=O)NC(=O)N2)c1 | 169 to 171 °C |
| COC1=C(OC)C(=O)c2ccccc2C1=O | 116 to 117 °C |
| CC1(C)C(=O)C(C)(C)c2cc3[nH]c(S(=O)Cc4ccccn4)nc3cc21 (stereo not drawn) | 201 to 203 °C |
| N#CC1=C(C#N)Sc2nc3cc(C(F)(F)F)ccc3nc2S1 | 197 to 199 °C |
| CCCCCCCCCCCCCCCCNc1ccc(C(=O)NS(=O)(=O)c2ccccc2)cc1 | 136 to 138 °C |
| CC(=O)N1CCN(c2ccc(Nc3nccc(-c4sc(NCCc5ccccc5)nc4C)n3)cc2)CC1 | 212 to 213 °C |
| CC(C)C(=O)c1cn(-c2c(Cl)cc(C(F)(F)F)cc2Cl)nc1C#N | 168 to 169 °C |
| CC(c1ccc(Cl)cc1)N1CCNC1=NC#N (stereo not drawn) | 133 °C |
| CCOC(=O)c1cnn2c1c(Nc1ccccc1)nc1ccccc12 | 145 to 147 °C |
| Cc1cc(OCc2ccc(-c3ccc(C(F)(F)F)cc3)nc2C)ccc1OC(C)(C)C(=O)O | 164 to 165 °C |
| CCOC(=O)C(=CNc1ncnc2ccc([N+](=O)[O-])cc12)C(=O)OCC | 228 to 230 °C |
| CN1c2ccc(Cl)cc2C(c2ccccc2)=NCC1CN1CCCCC1 (stereo not drawn) | 143 to 145 °C |
| CC(C)n1c(=O)[nH]c(C(F)(F)F)c(Br)c1=O | 149 to 150 °C |
| COc1cc(CC(=O)NCCOc2ccc(C(=O)O)cc2[N+](=O)[O-])ccc1N(C(N)=O)c1ccccc1C | 112 to 115 °C |
| CCC(COC)c1ccc(Cl)c2nc3n(c12)CCCN3c1ccc(Cl)cc1Cl (stereo not drawn) | 130 to 131 °C |
| Cc1nc(-c2ccccc2)c(-c2ccccc2)n1CCCCCCNC(=O)Oc1ccccc1F | 129 to 131 °C |
| c1ccc2c(CN3CCN(Cc4ccc5c(c4)OCO5)CC3)n[nH]c2c1 | 175 to 176 °C |
| CC[C@@H](c1ccccc1)N(Cc1ccc(C(=O)OC)cc1)S(=O)(=O)c1ccc(Cl)cc1 | 108 to 110 °C |
| CC(C)(C)Nc1nc(NCc2ccccc2)c(C#N)cc1F | 138 to 140 °C |
| Cc1c(-c2ccc(NC(=O)OC(C)(C)C)cc2)nc2n1CCc1ccccc1C2OC1CCN(C)CC1 (stereo not drawn) | 194 °C |
| COc1cc(/C(C#N)=C/c2ccc(C)c([N+](=O)[O-])c2)cc(OC)c1OC | 162 to 163 °C |
| CC(C)(O)Cn1c(COCc2ccccc2)nc2c(N)nc3ccccc3c21 | 196 to 198 °C |

| Structure (SMILES) | melting point |
| --- | --- |
| CCCn1c(=O)c2[nH]c(-c3ccc(C#N)cc3)nc2n(C)c1=O | 314 to 318 °C |
| COc1cc(N)c(Cl)cc1C(=O)NC1CCN(CCn2c(=O)[nH]c3ccccc3c2=O)CC1OC (stereo not drawn) | 271 °C |
| COC(C=CC=Cc1ccc(OC)cc1)=CC(=O)O | 187 °C |
| CC(C)c1ccc(CCC(O)CC2CCCCC2)cc1NC(=O)CC1c2ccccc2Oc2ccccc21 (stereo not drawn) | 144 to 145 °C |
| O=C(c1nc(Cl)c(Cl)[nH]1)N1CCOCC1 | 215 °C |
| O=C(c1ccc(-c2ccccc2)cc1)C1CCN(CCc2c[nH]c3ccccc23)CC1 | 189 to 192 °C |
| O=C(O)CCCc1cc2cc(Cl)ccc2n1S(=O)(=O)c1ccc2c(c1)CCN2 | 203 °C |
| CCOC(=O)c1cn(C2CC2)c2cc(-c3cc(C)nc(CO)c3)c(F)cc2c1=O | 240 °C |
| CN1C(c2ccc(N3CCCCC3)cc2)=NC(C(F)(F)F)(C(F)(F)F)C1NC(=O)c1ccc(F)cc1 (stereo not drawn) | 123 to 124 °C |
| O=C(Nc1cccc(C(F)(F)F)c1)c1ccccc1O | 188 to 191 °C |
| CC(C)(C)C(=O)NNc1ccc([N+](=O)[O-])cc1Cl | 123 °C |
| O=C1NCCN(N=Cc2ccccc2)C1=O | 231 to 234 °C |
| O=S(=O)(CC(Cl)(c1ccccc1)c1cc(Cl)ccc1Cl)CC(Cl)(c1ccccc1)c1cc(Cl)ccc1Cl (stereo not drawn) | 136 °C |
| CNC(=O)c1cc(=O)c2ccccc2o1 | 224 to 225 °C |
| O=C(O)CCCCCCCn1ncc(-c2ccccc2)c1-c1ccccc1 | 94 to 95 °C |
| CC1(C)CC(S(=O)(=O)C(F)c2c(F)cccc2F)=NO1 (stereo not drawn) | 88 °C |
| NC(=S)N1c2ccccc2C=Cc2ccccc21 | 192 to 194 °C |
| COc1c(O)c(C(C)=O)c(OC)c2c1OCC2 | 100 to 101 °C |
| CCCCN(Cc1ccc(-c2ccccc2-c2nnn[nH]2)cc1)c1ncc(C(=O)O)s1 | 183 to 184 °C |
| CNCC(=O)N1CC(c2ccc(Cl)cc2)Sc2ccccc21 (stereo not drawn) | 139 to 140 °C |
| CCOc1cc(C)c(C(=O)N=C(N)N)cc1S(C)(=O)=O | 201 to 203 °C |
| COc1ccc(-c2csc3nc(C)c(CCN4CCC(c5noc6cc(F)ccc56)CC4)c(=O)n23)cc1 | 114 to 119 °C |
| CC1=NC(C)c2nnc(-c3ccc(Cl)cc3)n2-c2ccccc21 (stereo not drawn) | 230 °C |
| Cc1ccccc1S(=O)(=O)NC(=O)CCSC1c2ccccc2COc2ccc(OCc3ccc4ccc(Cl)cc4n3)cc21 (stereo not drawn) | 87 to 90 °C |
| CC12CCC3C(CC=C4CC(O)CCC43C)C1CC=C2I (stereo not drawn) | 169 to 171 °C |

| Structure (SMILES) | melting point |
| --- | --- |
| CNCCC1CCc2cc(OCc3ccc(-c4ccccc4)cc3)ccc2C1 (stereo not drawn) | 75 to 76 °C |
| CCc1ccc(C(=O)N[C@@H]2CCc3cccc(N4CCN(C)CC4)c3C2)cc1 | 177 to 178 °C |
| CCCCCCCCCC(=O)Nc1cc(NC(=O)CCCCCCCCC)cc(C(=O)O)c1 | 208 to 209 °C |
| COc1ccc(CCCC2CCNCC2)cc1 | 65 to 70 °C |
| Nc1ccc(S(=O)c2ccc(-c3ccc(Br)cc3)cc2)cc1N (stereo not drawn) | 161 to 164 °C |
| CSC(Nc1cc(C(F)(F)F)cc(C(F)(F)F)c1)=C(C#N)S(=O)(=O)C(C)C | 130 to 133 °C |
| CCCCCS(=O)(=O)NC(=O)/C=C/c1cc(OCC2(C)COC2)nn1Cc1ccc(C(F)(F)F)cc1Cl | 144 to 147 °C |
| CS(=O)c1ccc(-c2coc3ccc(-c4nnc(O)o4)cc23)cc1 (stereo not drawn) | 234 to 237 °C |
| CN1C(=O)CC=C2c3ccc(Cl)cc3CCC21 (stereo not drawn) | 99 °C |
| COc1cc(CC(N)=O)c(CCc2ccc(O)c(OCc3ccccc3)c2)c(OC)c1OC | 139 to 141 °C |
| COc1ccc(C(=O)c2ccc(OCc3nc(-c4ccccc4)oc3C)nc2)c(OC(C)C(=O)O)c1 (stereo not drawn) | 162 to 163 °C |
| CS(=O)(=O)c1ccc2c(c1)C1(O)C(C2)SC(=Nc2ccccc2)N1c1ccccc1 (stereo not drawn) | 75 °C |
| COC(=O)c1cc(=O)c2cc(OC)cc(N)c2o1 | 145 to 147 °C |
| Cc1cccc(NC(=O)OC(C)(C)C)c1COc1cccn2c(C=O)c(C)nc12 | 189 to 191 °C |
| O=C(NNC(=O)c1ccccc1O)c1ccccc1O | 303 °C |
| N#Cc1c(N)ccc(C(=O)CBr)c1Cl | 180 to 207 °C |
| O=C(NC1CCN(CCCCl)CC1)c1ccccc1 | 145 to 147 °C |
| COc1ccc(Nc2ccc(C)cc2)c(C(=O)O)c1 | 160 to 161 °C |
| O=C(/C=C/c1c[nH]cn1)Oc1ccc([N+](=O)[O-])cc1 | 220 to 222 °C |
| CCCCCCCCCOc1ccccc1/C=C/C(C)=C/C=C/C(C)=C\C(=O)O | 135 to 136 °C |
| O=C1NC(=O)C2CC(SC3=CCC4C(=O)NC(=O)C4C3)=CCC12 (stereo not drawn) | 204 to 208 °C |
| CC1(C)OC(=S)Nc2ccc(-c3cc(F)cc(Cl)c3)cc21 | 204 to 205 °C |
| CCOC(=O)C=C(C)Nc1c[nH]nc1-c1ccc(Cl)cc1 | 145 to 146 °C |
